Source: patent US7507732B2, “Cyclopentapyridine and tetrahydroquinoline derivatives” (Pfizer Inc., priority 2005, dated 2009)
Read-outs that look alike come from different tables or passages of the source.

Legend:
human 5HT2b receptor = human 5HT2b receptor (Homo sapiens, UniProt P41595); assay: 5HT2b Binding Procedure (competition binding with 3H-LSD, CHO cell membranes)
Procedure: Affinity of compounds for the human 5HT2b receptor is determined by competition binding using membranes prepared from Chinese hamster ovary (CHO) cells containing the tetracycline operator (Flp-In Trex system—Invitrogen) that were engineered to express the human 5HT2b receptor. […] The supernatant was removed and discarded, while the pellet was resuspended in homogenization buffer, then centrifuged for 20 minutes at 25,000×g at 4° C. The supernatant was discarded while the pellet (containing membranes) was resuspended in homogenization buffer, and the membranes were aliquoted and frozen at −80° C. The binding assay was set up in 96-well plates, which contained 2 μl of test compound (in 100% DMSO) then 100 μl of ^3H-LSD (final concentration=3 nM) diluted in assay buffer (50 mM Tris pH 7.4, 4 mM CaCl2, 0.1% Ascorbic Acid), followed by the addition of 100 μl of membranes (approximately 15 μg membrane protein, diluted in assay buffer) from 5HT2b -expressing cells. 1 μM mianserin was used to calculate non-specific binding. The assay plates were incubated at 37° C. for 60 minutes, then the assay was terminated by filtration onto 96-well UniFilter™ plates (with GF/C filters—from PerkinElmer™) which were pre-soaked in 0.3% PEI. The filterplates were washed 2× with cold wash buffer (50 mM Tris, pH 7.4), then dried, scintillation fluid added and radioactivity determined in a Wallac Microbeta™ plate scintillation counter (PerkinElmer™). Concentration-response curves of the % inhibition of specific binding by test compounds versus the test compound concentration, was used to determine the IC50 for each compound and the Ki value calculated based on the Cheng-Prusoff equation (Ki=IC50/(1+(L/Kd)), where L is the concentration of the radioligand used in the binding assay and the Kd is based on previous saturation studies with the radioligand.

human 5HT2c receptor = target: T1, human 5HT2c receptor (Homo sapiens, UniProt P28335); assay: 5HT2c Binding Procedure (competition binding against 3H-5HT, membranes of transfected Swiss 3T3 mouse cells)
T1 construct: expressed in transfected cells; host or cells: Swiss 3T3 mouse cells (ATCC)
T1 sequence (P28335 33-458): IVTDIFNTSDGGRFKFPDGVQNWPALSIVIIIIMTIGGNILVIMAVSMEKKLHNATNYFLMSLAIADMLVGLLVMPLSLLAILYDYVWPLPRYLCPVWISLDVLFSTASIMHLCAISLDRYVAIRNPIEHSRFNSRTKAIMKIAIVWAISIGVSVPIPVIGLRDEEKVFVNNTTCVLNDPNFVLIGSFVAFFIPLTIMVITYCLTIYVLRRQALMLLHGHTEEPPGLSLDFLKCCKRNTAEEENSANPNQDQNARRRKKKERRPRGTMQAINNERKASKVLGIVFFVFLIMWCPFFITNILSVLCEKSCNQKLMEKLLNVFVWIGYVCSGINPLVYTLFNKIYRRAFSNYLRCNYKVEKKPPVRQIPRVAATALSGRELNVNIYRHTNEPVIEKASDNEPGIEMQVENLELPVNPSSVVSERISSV
Procedure: Affinity of compounds at the serotonin 5HT2c binding site is determined by competition binding in Swiss 3T3 mouse cells (available from the American Type Culture Collection (ATCC), Manassas, Va.) transfected with the human 5HT2c receptor against ^3H-5HT.

rat 5HT2a receptor = target: T2, rat 5HT2a receptor (Rattus norvegicus, UniProt P14842); assay: 5HT2a Binding Procedure (competition binding using 125I-DOI, membranes of transfected NIH 3T3 mouse cells)
T2 construct: expressed in transfected cells; host or cells: NIH 3T3 mouse cells
Procedure: Affinity of compounds at the serotonin 5HT2a binding site is determined by competition binding in NIH 3T3 mouse cells transfected with the rat 5HT2a receptor using 125I-DOI.

[1] = cited from earlier work
[2] = receptor binding, 5HT2c, read-out: 2cKi
[3] = receptor binding, 5HT2a, read-out: 2aKi

T2 sequence (P14842 whole entry): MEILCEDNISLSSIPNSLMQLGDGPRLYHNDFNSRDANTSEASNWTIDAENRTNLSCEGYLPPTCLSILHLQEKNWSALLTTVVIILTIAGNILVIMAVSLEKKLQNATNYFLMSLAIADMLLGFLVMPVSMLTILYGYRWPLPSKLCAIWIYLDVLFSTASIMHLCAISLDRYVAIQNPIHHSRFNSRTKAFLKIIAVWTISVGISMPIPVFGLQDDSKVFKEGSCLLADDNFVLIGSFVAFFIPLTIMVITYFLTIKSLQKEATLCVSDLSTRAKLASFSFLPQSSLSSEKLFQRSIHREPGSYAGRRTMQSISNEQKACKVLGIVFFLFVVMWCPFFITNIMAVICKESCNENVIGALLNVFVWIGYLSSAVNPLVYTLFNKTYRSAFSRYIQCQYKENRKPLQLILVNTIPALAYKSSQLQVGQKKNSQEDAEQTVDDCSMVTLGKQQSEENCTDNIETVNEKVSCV
human 5HT2b receptor, sequence (P41595 whole entry): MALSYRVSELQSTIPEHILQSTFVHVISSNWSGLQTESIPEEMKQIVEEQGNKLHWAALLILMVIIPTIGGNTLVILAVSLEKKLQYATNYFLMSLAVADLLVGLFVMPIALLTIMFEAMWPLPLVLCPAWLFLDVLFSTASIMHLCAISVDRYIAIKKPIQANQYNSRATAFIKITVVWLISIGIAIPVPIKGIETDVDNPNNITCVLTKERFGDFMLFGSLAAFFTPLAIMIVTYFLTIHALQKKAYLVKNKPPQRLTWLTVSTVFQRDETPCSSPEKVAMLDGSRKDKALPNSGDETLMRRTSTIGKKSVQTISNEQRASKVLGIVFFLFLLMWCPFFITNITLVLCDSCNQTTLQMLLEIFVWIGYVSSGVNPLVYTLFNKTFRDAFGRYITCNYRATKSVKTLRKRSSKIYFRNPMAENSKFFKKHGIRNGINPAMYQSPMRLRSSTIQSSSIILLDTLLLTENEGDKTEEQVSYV

For `Fc1ccc(F)c(CO[C@H]2CCc3ccc(N4CCNCC4)nc32)c1` [Example 1A-37, (7S)-7-[(2,5-difluorobenzyl)oxy]-2-piperazin-1-yl-6,7-dihydro-5H-cyclopenta[b]pyridine], the Ki (human 5HT2b receptor) was 159 nM, the Ki (human 5HT2c receptor) was 26.6 nM and the Ki (rat 5HT2a receptor) was 25 nM.
Compound `C[C@@H]1CNCCN1c1ccc2c(n1)[C@@H](OCc1cccc(C#N)c1)CC2` [Example 2A-4, 3-[({(7S)-2-[(2R)-2-methylpiperazin-1-yl]-6,7-dihydro-5H-cyclopenta[b]pyridin-7-yl}oxy)methyl]benzonitrile] has a Ki (human 5HT2b receptor) of 803 nM, a Ki (human 5HT2c receptor; [2]) of 6.9 nM and a Ki (rat 5HT2a receptor; [3]) of 33.9 nM.
With `Fc1cc2c(c(O[C@H]3CCc4ccc(N5CCNCC5)nc43)c1)CCC2` [Example 3A-76, (7S)-7-[(6-fluoro-2,3-dihydro-1H-inden-4-yl)oxy]-2-piperazin-1-yl-6,7-dihydro-5H-cyclopenta[b]pyridine] the Ki (human 5HT2b receptor) was 53 nM, the Ki (human 5HT2c receptor; [2]) was 3 nM and the Ki (rat 5HT2a receptor; [3]) was 2.8 nM.
Work on `c1ccc2c(O[C@H]3CCc4ccc(N5CCNCC5)nc43)cncc2c1` [Example 3A-83, 4-{[(7S)-2-piperazin-1-yl-6,7-dihydro-5H-cyclopenta[b]pyridin-7-yl]oxy}isoquinoline] yielded a Ki (human 5HT2b receptor; read-out: 2bKi, receptor binding, 5HT2b) of 145 nM, a Ki (human 5HT2c receptor) of 17.9 nM and a Ki (rat 5HT2a receptor) of 46.8 nM.
With `C[C@@H]1CNCCN1c1ccc2c(n1)[C@@H](Oc1ccccc1F)CC2` [Example 4A-4] the Ki (human 5HT2b receptor) was 21 nM, the Ki (human 5HT2c receptor; [2]) was 5.11 nM and the Ki (rat 5HT2a receptor; [3]) was 4.14 nM.
For `O=C1Cc2cc(CCN3CCN(c4nsc5ccccc45)CC3)c(Cl)cc2N1` [Ziprasidone, 5-[2-[4-(1,2-benzisothiazol-3-yl)piperazin-1-yl]ethyl]-6-chloroindolin-2-one], the half-life ([1]; in vivo) is listed as 6 to 7 h, the protein binding ([1]; in vivo) is listed as “extensive” and the Oral bioavailability ([1]; taken with food) is listed as “approximately 60%”.
